Experimental data from paper PMC5961436, “PKA and PKC Modulators Affect Ion Channel Function and Internalization of Recombinant Alpha1 and Alpha1-Beta Glycine Receptors” (Frontiers in Molecular Neuroscience, 2018).

Legend:
human homomeric α1 GlyRs = assay: Whole-cell patch-clamp of glycine induced currents, modulators in the intracellular buffer, HEK293 cells expressing GlyR α1; assay type: cell-based; conditions: for change of Imax at t = 10 min normalized to t = 0: 0.25 μM intracellular modulator, one-way ANOVA; for effect on EC50: 0.25 μM modulator, t = 0; for desensitization of glycine induced currents / effect on EC50 compared to control / Fraction of desensitizing cells / Imax: 0.5 μM modulator in intracellular buffer; for Fraction of desensitizing cells / Imax: mean ± SEM
Experimental: (§1) HEK293 cells were grown in 10 cm tissue culture Petri dishes in Eagle minimal essential medium (Sigma-Aldrich Chemie GmbH, Munich, Germany) supplemented with 10% FBS (Invitrogen, Karlsruhe, Germany) and penicillin/streptomycin (Sigma-Aldrich Chemie GmbH, Munich, Germany) at 5% CO2 and 37°C in a water saturated atmosphere. For electrophysiological experiments, cells were plated on poly-L lysine treated glass coverslips in 6 cm dishes. Transfection was performed 1 day after cell passage using Gen-Carrier (Epoch Lifesciences, Sugarland, TX, USA): 1.3 μg of receptor DNA, 1.3 μg of green fluorescent protein DNA, and 2.6 μl GenCarrier were used, following the manufacturer’s instructions. Measurements were performed 2–4 days after transfection. HEK293 cells used for protein expression and internalization analysis were transfected using a modified calcium phosphate precipitation method. In brief, a mixture of plasmid DNA, CaCl2 (2.5M), 0.1× TE buffer and 2× HBS (50 mM HEPES, 12 mM glucose, 10 mM KCl, 280 mM NaCl, 1.5 mM Na2HPO4) was applied onto the cells for 6 h. A GlyR α1 to GlyR β ratio of 1:2 was used for co-expression. Transfection medium was replaced by fresh medium after 6 h. Immunocytochemical stainings were always done 24 h after transfection, biotinylation experiments were performed 48 h after transfection.
(§2) using a nonlinear algorithm in Microcal Origin. Here, Iglycine is the current amplitude at a given glycine concentration, Isat is the maximum current amplitude at saturating concentrations of glycine, EC50 is the glycine concentration at half-maximal current responses, and nHill is the Hill coefficient. Currents from each individual cell were normalized to the maximum response at saturating glycine concentrations. Significance of differences between EC50 values were determined using one-way ANOVA with p ≤ 0.05 (*) and p ≤ 0.01 (**) taken as significant. In all experiments, EC50 values were determined for each individual cell from a non-linear fit of dose response data to the logistic equation. An unweighted average ± standard error (SEM) was calculated from all individual EC50 values, without considering the fitting errors.
(§3) For time course analysis, a series of EC50 data was recorded from each cell. The first concentration-response curve, defined as t = 0, was recorded immediately after establishing the whole-cell configuration and positioning the cell in front of the delivery tube. […] Further recordings were made at t = 3 min, t = 6 min and t = 10 min (not attained with all cells). Time-independent recordings were taken at t = 0, and values of EC50 and Imax in the presence of PKA- or PKC modulators were normalized to control (no modulator). For time course analysis, responses were normalized to the control value at t = 0. Patch-clamp experiments were carried out on different dates and using different batches of HEK 293 cells. Since control EC50 values varied between different days of plating and between batches of cells, measurements with kinase modulators were always compared to control measurements recorded on the same day and from the same batch of cells.

GlyR α1-β = assay: Receptor internalization assay (pre-labeled GlyRs, confocal microscopy) in HEK293 cells; assay type: cell-based, human; conditions: 200 nM modulator, 15 min, 37°C; untreated cells 1.7 ± 0.4 dots/cell; ± SEM
Experimental: To stain internalized GlyRs, GlyR α1 was cotransfected with GlyR β into HEK293 cells grown on glass cover slips. Internalization experiments were performed 24 h post-transfection. Live cells co-expressing GlyR α1-β receptors were labeled with the α1-specific monoclonal antibody Mab2b (1:500 in Earle’s minimal essential medium for 1 h at 4°C). Earle’s minimal essential medium was supplemented with 10% fetal calf serum, […] GlutaMAX, 100 mM sodium pyruvate, and 50 U/ml penicillin/streptomycin (Thermo Fisher Scientific, Waltham, MA, USA). Mab2b was purchased from Synaptic Systems, Göttingen, Germany. Following three washing steps in phosphate-buffered saline (PBS, pH 7.4), cells were incubated with goat-anti-mouse-Cy3 secondary antibody again for 1 h at 4°C (dilution of secondary antibody 1:500 in Earle’s minimal essential medium, Dianova, Hamburg Germany). Glass cover slips with pre-labeled GlyRs were transferred into a 24-well plate containing 500 μl of Earle’s minimal essential medium with PKA and PKC modulators (200 nM final concentration each; Forskolin, H-89, PMA, Staurosporine aglycon, all from Sigma-Aldrich Chemie GmbH, Munich, Germany). Cells were incubated with modulators for 15 min to allow receptor internalization. Time point zero (0 min) was taken as a negative internalization control to ensure health of HEK293 cells (pre-labeling of GlyRs at 4°C inhibits internalization). Following incubation with PKA and PKC modulators, cells were stained with a second secondary antibody (donkey-anti-goat-Dyelight488, 1:250 in Earle’s minimal essential medium, Dianova, Hamburg, Germany) for 30 min at 4°C to label receptor retained at the cellular surface. Cells were fixed with 4% paraformaldehyde, 4% sucrose in PBS for 15 min at 4°C, washed three times in PBS and stained with 4′,6-diamidino-2-phenylindole (DAPI, Thermo Fisher Scientific, Waltham, MA, USA) to label the cell nuclei for 5 min at 4°C (1:5000 in PBS). Coverslips were washed again with PBS and Aqua Dest and mounted on glass slides using mowiol.
The images were obtained using an inverted Olympus IX81 microscope equipped with an Olympus FV1000 confocal laser scanning system, a FVD10 SPD spectral detector and diode lasers of 495 nm (Alexa488) and 550 nm (Cy3; Olympus, Tokyo, Japan), and an Olympus UPLSAPO 60× (oil, numerical aperture: 1.35) objective. Adobe Photoshop (Adobe, San Jose, CA, USA) or ImageJ (1.51)/Fiji^1 were used for image analysis.

[1] = test system: human heteromeric α1-β GlyRs; assay: Whole-cell patch-clamp of glycine induced currents, modulators in the intracellular buffer, HEK293 cells expressing GlyR α1-β; assay type: cell-based; conditions: for desensitization of glycine induced currents / effect on EC50 compared to control / Fraction of desensitizing cells / Imax: 0.5 μM modulator in intracellular buffer; for Fraction of desensitizing cells / Imax: mean ± SEM
Experimental: as §1, §2, §3

[2] = test system: glycine activated chloride currents; design: method as in Ren et al., 1998; conditions: added to the pipette solution; ref Ren et al., 1998; cited from earlier work
Igly = test system: Igly; design: method as in Min et al., 1996; conditions: ref Min et al., 1996; cited from earlier work
homomeric α1 GlyRs = test system: homomeric α1 GlyRs; design: method as in Uchiyama et al., 1994; conditions: ref Uchiyama et al., 1994; cited from earlier work
nAChR = test system: nAChR; design: method as in Wagoner and Pallotta, 1988; conditions: cAMP-independent; ref Wagoner and Pallotta, 1988; cited from earlier work
GlyR = test system: GlyR; design: method as in Li and Yang, 2001; conditions: ref Li and Yang, 2001; cited from earlier work
GlyRs = test system: GlyRs; design: method as in Salceda and Aguirre-Ramirez, 2005; conditions: 10 μM Forskolin; ref Salceda and Aguirre-Ramirez, 2005; cited from earlier work
HEK293 cells = assay: Tolerance of HEK293 cells to intracellular kinase modulators during patch-clamp; conditions: intracellular concentration raised to 1 μM
Experimental: Whole-cell recording experiments were performed using a HEKA EPC10 amplifier (HEKA Electronics, Lambrecht, Germany) controlled by Pulse software (HEKA). Recording pipettes were pulled from borosilicate glass (World Precision Instruments, Berlin, Germany) using a Sutter P-97 horizontal puller (Sutter, Novato, CA, USA). […] Series resistance, as well as slow and fast capacitance were compensated using the EPC10 circuitry. The different protein kinase modulators were dissolved in intracellular buffer at a concentration of 0.5 μM. For studies of concentration- and time-dependence, kinase modulators were used at concentrations of 0.1 μM and 0.25 μM. Current responses were measured at room temperature (21–23°C) at a holding potential of −50 mV. Solutions were applied using an Octaflow system (NPI electronics, Tamm, Germany), where cells were bathed in a laminar flow of buffer, giving a time resolution for solution exchange and re-equilibration of about 100 ms. The external buffer consisted of 135 mM NaCl, 5.5 mM KCl, 2 mM CaCl2, 1.0 mM MgCl2 and 10 mM Hepes (pH adjusted to 7.4 with NaOH); the internal buffer was 140 mM CsCl, 1.0 mM CaCl2, 2.0 mM MgCl2, 5.0 mM EGTA and 10 mM Hepes (pH adjusted to 7.2 with CsOH).

Row | SMILES | change of Imax at t = 10 min normalized to t = 0 (human homomeric α1 GlyRs) | effect on EC50 (human homomeric α1 GlyRs) | desensitization of glycine induced currents (human homomeric α1 GlyRs; GlyR α1) | effect on EC50 compared to control (human homomeric α1 GlyRs; GlyR α1) | Fraction of desensitizing cells (human homomeric α1 GlyRs; GlyR α1) | Imax (human homomeric α1 GlyRs; GlyR α1) [nA] | internalized receptor (GlyR α1-β) [dots/cell] | desensitization of glycine induced currents [1] | effect on EC50 compared to control [1] | Fraction of desensitizing cells [1] | Imax [1] [nA] | also measured
1 | O=S(=O)(NCCNC/C=C/c1ccc(Br)cc1)c1cccc2cnccc12 [H-89] | not significant | opposite effect | non-desensitizing current responses | decreased EC50 values | 0.07 ± 0.03 | 1.91 ± 0.57 | 4.0 ± 1.0 | non-desensitizing current responses | decreased EC50 values | 0.19 ± 0.09 | 1.37 ± 0.28 | effect on ATP induced run-up of the glycine current [2]: blocked; effect on Igly (Igly): potentiation of Igly
2 | NCC(=O)O [glycine] |  |  |  |  |  |  |  |  |  |  |  | EC50 (human homomeric α1 GlyRs; GlyR α1, absence of modulators, n = 11): 37.4 ± 3.7 µM; EC50 ([1]; absence of modulators, n = 8): 45.4 ± 6 µM
3 | CCCCCCCCCCCCCC(=O)O[C@@H]1[C@@H](C)[C@@]2(O)[C@@H](C=C(CO)C[C@@]3(O)C(=O)C(C)=C[C@@H]23)[C@@H]2C(C)(C)[C@]12OC(C)=O [4-alpha-PMA] |  |  |  |  |  |  |  |  |  |  |  | effect on glycine currents (homomeric α1 GlyRs): did not affect the glycine currents
4 | C=C[C@@]1(C)CC(=O)[C@]2(O)[C@@]3(C)[C@@H](O)CCC(C)(C)[C@@H]3[C@H](O)[C@H](OC(C)=O)[C@@]2(C)O1 [Forskolin] | significantly reduced | increased EC50 | faster desensitization | significant increase | 0.57 ± 0.12 | 1.20 ± 0.24 | 6.9 ± 1.5 | faster desensitization | significant increase | 0.52 ± 0.07 | 0.99 ± 0.24 | effect on desensitization of the nAChR (nAChR): enhancement of desensitization; effect on desensitization of whole cell responses (GlyR): markedly accelerates desensitization; reduction of specific binding of both radioligands (GlyRs): 30%–90%; effect on Igly (Igly): inhibited Igly potentiation
5 | C=C[C@@]1(C)CC(=O)[C@@H]2[C@@]3(C)CCCC(C)(C)[C@@H]3[C@H](O)[C@H](OC(C)=O)[C@@]2(C)O1 [1,9-dideoxy Forskolin] |  |  |  |  |  |  |  |  |  |  |  | effect on desensitization of whole cell responses (GlyR): accelerates the desensitization effectively
6 | CCCCCCCCCCCCCC(=O)O[C@@H]1[C@@H](C)[C@@]2(O)[C@@H](C=C(CO)C[C@]3(O)C(=O)C(C)=C[C@@H]23)[C@@H]2C(C)(C)[C@]12OC(C)=O [4-beta-PMA] |  |  |  |  |  |  |  |  |  |  |  | effect on glycine currents (homomeric α1 GlyRs): Reduced responses
7 | O=C1NCc2c1c1c3ccccc3[nH]c1c1[nH]c3ccccc3c21 [Staurosporine aglycon] | not significant | opposite effect | slow or no desensitization | decrease of half maximum values | 0.10 ± 0.05 | 1.70 ± 0.29 | 2.3 ± 0.5 | slow or no desensitization | decrease of half maximum values | 0.06 ± 0.04 | 1.11 ± 0.20 | cell survival (HEK293 cells): cells did not survive; effect of 4-beta-PMA in the presence of Staurosporine aglycon (homomeric α1 GlyRs): the effect was inhibited
